Patent publication US7265136B1, “Substituted stilbene compounds with vascular damaging activity” (Angiogene Pharmaceuticals Ltd., priority 1999, dated 2007)

What was measured:
CaNT tumour vasculature = experiment: Activity against tumour vasculature measured by fluorescent dye (Hoechst 33342): tumour functional vascular volume; format: in vivo, mice; details: Carcinoma NT tumour, 24 h post dose
Method: Activity Against Tumour Vasculature Measured by Fluorescent Dye.
Tumour functional vascular volume in CaNT tumour-bearing mice was measured using the fluorescent dye Hoechst 33342 according to the method of Smith et al (Brit J Cancer 57, 247-253, 1988). The fluorescent dye was dissolved in saline at 6.25 mg/ml and injected intravenously at 10 mg/kg 24 hours after drug treatment. One minute later, animals were killed and tumours excised and frozen; 10 μm sections were cut at 3 different levels and observed under UV illumination using an Olympus microscope equipped with epifluorescence. Blood vessels were identified by their fluorescent outlines and vascular volume was quantified using a point scoring system based on that described by Chalkley, (J Natl Cancer Inst, 4, 47-53, 1943). All estimates were based on counting a minimum of 100 fields from sections cut at the 3 different levels.

CaNT tumours = experiment: Induction of necrosis in tumours, scored on haematoxylin and eosin stained sections; format: in vivo, mice; details: Carcinoma NT tumour, 24 h post dose, mean score from at least three tumours, control tumours 2.0
Method: Mice bearing either CaNT or SaS tumours were treated with the test compound and tumours excised after 24 h, fixed in formalin, embedded in paraffin, sectioned and stained with haematoxylin and eosin. Sections were scored based on area of necrosis as follows:
Control tumours had mean scores of 2.0 (CaNT) and 1.0 (SaS). Mean values from at least three different tumours were obtained for each test compound.

Structure (SMILES)	Vascular volume % reduction (CaNT tumour vasculature; 50 mg/kg i.p.) [%]	Vascular volume % reduction (CaNT tumour vasculature; 50 mg/kg i.v.) [%]	Necrosis score (CaNT tumours; 50 mg/kg i.p.)	Necrosis score (CaNT tumours; 50 mg/kg i.v.)
COc1ccc(/C=C\c2cc(OC)c(OC)c(OC)c2)cc1OP(=O)(O)O [CA4P, Combretastatin A4 phosphate]	91	88	6.0	5.7
COc1ccc(/C=C\c2cc(OC)c(OC)c(OC)c2)cc1OC(=O)C(N)CCCN=C(N)N[N+](=O)[O-] (centres unmarked) [Cmpd. of Example 1, (Z)-1-(4-Methoxy-3-N^G-nitroarginyloxyphenyl)-2-(3,4,5-trimethoxyphenyl)ethene]		98		10.0
COC(=O)C(CCCN=C(N)N[N+](=O)[O-])NC(=O)Oc1cc(/C=C\c2cc(OC)c(OC)c(OC)c2)ccc1OC (centres unmarked) [Cmpd. of Example 2, (Z)-N-[2-methoxy-5-[2-(3,4,5-trimethoxyphenyl)ethenyl]phenoxycarbonyl]N^G-nitroarginine Methyl Ester]	95		8.0	
